Results on nine compounds are retold here after ChEMBL document CHEMBL1795248, “N,N'-Dialkylaminoalkylcarbonyl (DAAC) prodrugs and aminoalkylcarbonyl (AAC) prodrugs of 4-hydroxyacetanilide and naltrexone with improved skin permeation properties” (Bioorg Med Chem Lett, 2011).

By half-life is commonly meant the time in which the quantity being followed falls by half.

This data set can be described thus: Chemical stability of the compound assessed as half life in phosphate buffer at pH 6.0. The class given is physicochemical.
With `CC(=O)Nc1ccc(OC(=O)CN(C)C)cc1.Cl`, the half-life was found to be 1.28 h.

Consider `CC(=O)Nc1ccc(OC(=O)CCN(C)C)cc1.Cl`, for which the half-life worked out at 1.88 h.

As to `CCN(CC)CC(=O)Oc1ccc(NC(C)=O)cc1.Cl`, the half-life is 1.76 h.

On to `CCN(CC)CCC(=O)Oc1ccc(NC(C)=O)cc1.Cl`, for which the half-life was 1.32 h.

For `CC(=O)Nc1ccc(OC(=O)CCN2CCCCC2)cc1.Cl`, the half-life is 1.33 h.

For `CC(C)[C@H](N)C(=O)Oc1ccc2c3c1O[C@H]1C(=O)CC[C@@]4(O)[C@@H](C2)N(CC2CC2)CC[C@]314.O=C(O)C(F)(F)F`, the half-life worked out at 0.53 h.

Consider `CC(=O)Nc1ccc(OC(=O)[C@H](C)N)cc1.Cl` [ACETAMINOPHEN ALANINATE HYDROCHLORIDE], for which the half-life came to 0.539 h.

Take `CC(=O)Nc1ccc(OC(=O)[C@@H]2CCCN2)cc1.Cl` [ACETAMINOPHEN PROLINATE HYDROCHLORIDE]: the half-life came out at 0.248 h.

`CC(=O)Nc1ccc(OC(=O)[C@@H](N)C(C)C)cc1.Cl` [ACETAMINOPHEN VALINATE HYDROCHLORIDE]: the half-life is 1.52 h.
